From article PMC12697872, “Rethinking the AI Paradigm for Solubility Prediction of Drug‑Like Compounds with Dual‐Perspective Modeling and Experimental Validation” (Advanced Science, 2025)
≈ marks a conversion by molar mass, not a printed value.

Assays:
[1] = cited from earlier work; for LogS(mol/L): SC2-1 dataset (Second Solubility Challenge, tight subset), aqueous solubility; for Class: SC2-1 dataset, aqueous solubility class 0-6
[2] = Saturation shake-flask aqueous solubility, gravimetric determination; conditions: for Experimental Class: European Pharmacopoeia solubility class from the experimental solubility
Experimental: Excess solid drug was added to a vial to prepare supersaturated aqueous solutions. The vial was placed in a constant temperature mixer (Titan Technology, SD2‐100) at 25 °C and shaken for 48 h at a speed of 500 rpm. […] After equilibration, the solution was centrifugated at room temperature at 8000 rpm, and the supernatant was collected. The concentration of the supernatant was determined using the gravimetric method. A measured volume of the supernatant (e.g. 1 mL) was transferred to a pre‐weighted empty vial, dried in a vacuum oven at 70 °C, and re‐weighed. The difference between the initial and final weights represents the drug content in the saturated solution. Each compound was tested in triplicate to ensure accuracy.

Structure (SMILES) | LogS(mol/L) [1] | Class [1] | Experimental Class [2] | Experimental Log S ([2]; water, 25 °C, shaken 48 h, triplicate, Log S = base-10 logarithm of moles per liter) | solubility at 48 h ([2]; water, 25 °C, thermodynamic from solid, Experimental Log S, shaken 48 h, triplicate, Log S = base-10 logarithm of moles per liter)
NS(=O)(=O)c1cc2c(cc1Cl)NC(CSCc1ccccc1)=NS2(=O)=O | -4.84 mol/L | 6 (Practically insoluble or insoluble (6)) | – | – | –
CCn1cc(C(=O)O)c(=O)c2cc(F)c(N3CCNCC3)cc21 | -2.88 mol/L | 5 (Very slightly soluble (5)) | – | – | –
CC1=NS(=O)(=O)c2cc(Cl)ccc2N1 [CC1=NS(=O)(=O)c2cc(Cl)ccc2N1] | -3.43 mol/L | 6 (Practically insoluble or insoluble (6)) | – | – | –
CN1CCN(c2cc3c(cc2F)c(=O)c(C(=O)O)cn3-c2ccc(F)cc2)CC1 | -3.83 mol/L | 6 (Practically insoluble or insoluble (6)) | – | – | –
CC(CN1c2ccccc2Sc2ccccc21)N(C)C (centres unmarked) [CC(CN1c2ccccc2Sc2ccccc21)N(C)C] | -4.38 mol/L | 6 (Practically insoluble or insoluble (6)) | – | – | –
Nc1nc(=O)c2nc(CNc3ccc(C(=O)N[C@@H](CCC(=O)O)C(=O)O)cc3)cnc2[nH]1 | -5.96 mol/L | 6 (Practically insoluble or insoluble (6)) | – | – | –
COc1ccc(Cc2nccc3cc(OC)c(OC)cc23)cc1OC [COc1ccc(Cc2nccc3cc(OC)c(OC)cc23)cc1OC] | -4.33 mol/L | 6 (Practically insoluble or insoluble (6)) | – | – | –
O=c1[nH]c(=O)c2[nH]cnc2[nH]1 [O=c1[nH]c(=O)c2[nH]cnc2[nH]1] | – | 6 (Practically insoluble or insoluble (6)) | – | – | –
C[C@]12C[C@H](O)[C@H]3[C@@H](CCC4=CC(=O)CC[C@@]43C)[C@@H]1CC[C@@H]2C(=O)CO | -3.29 mol/L | 5 (Very slightly soluble (5)) | – | – | –
CCOc1nc2cccc(C(=O)OC(C)OC(=O)OC3CCCCC3)c2n1Cc1ccc(-c2ccccc2-c2nn[nH]n2)cc1 (centres unmarked) | -6.79 mol/L | 6 (Practically insoluble or insoluble (6)) | – | – | –
O=C1CCc2ccc(OCCCCN3CCN(c4cccc(Cl)c4Cl)CC3)cc2N1 | -6.64 mol/L | 6 (Practically insoluble or insoluble (6)) | – | – | –
COc1ccc2c(c1)c(CC(=O)O)c(C)n2C(=O)c1ccc(Cl)cc1 | -5.48 mol/L | 6 (Practically insoluble or insoluble (6)) | – | – | –
Cc1ccccc1N1C(=O)c2cc(S(N)(=O)=O)c(Cl)cc2NC1C (centres unmarked) | -3.88 mol/L | 6 (Practically insoluble or insoluble (6)) | – | – | –
N[C@@H](Cc1ccc(O)c(O)c1)C(=O)O [N[C@@H](Cc1ccc(O)c(O)c1)C(=O)O] | -1.76 mol/L | 4 (Slightly soluble (4)) | – | – | –
O=C1Nc2ccc(Cl)cc2C(c2ccccc2)=NC1O (centres unmarked) [O=C1Nc2ccc(Cl)cc2C(c2ccccc2)=NC1O] | – | 6 (Practically insoluble or insoluble (6)) | – | – | –
Cc1cc(=O)oc2cc(O[C@@H]3O[C@H](CO)[C@@H](O)[C@H](O)[C@H]3O)ccc12 [4‐methylumbelliferyl β‐D‐glucoside] | – | – | 4 (Slightly soluble (4)) | −1.886 ± 0.016 | –
N[C@@H](Cc1ccc(I)cc1)C(=O)O [4‐Iodo‐L‐phenylalanine] | – | – | 5 (Very slightly soluble (5)) | – | 1810 µM (≈ 526 µg/mL)
CC(=O)S[C@@H]1CC2=CC(=O)CC[C@]2(C)[C@H]2CC[C@@]3(C)[C@@H](CC[C@@]34CCC(=O)O4)[C@H]12 | -4.21 mol/L | 6 (Practically insoluble or insoluble (6)) | – | – | –
O=C(CCCN1CCC(O)(c2ccc(Cl)cc2)CC1)c1ccc(F)cc1 | -5.71 mol/L | 6 (Practically insoluble or insoluble (6)) | – | – | –
CCCN(CCC)S(=O)(=O)c1ccc(C(=O)O)cc1 [CCCN(CCC)S(=O)(=O)c1ccc(C(=O)O)cc1] | -4.83 mol/L | 6 (Practically insoluble or insoluble (6)) | – | – | –
Nc1nc(N)c2nc(-c3ccccc3)c(N)nc2n1 [Nc1nc(N)c2nc(-c3ccccc3)c(N)nc2n1] | -4.11 mol/L | 6 (Practically insoluble or insoluble (6)) | – | – | –
C[C@@H]1C[C@H]2[C@@H]3CCC4=CC(=O)C=C[C@]4(C)[C@@]3(F)[C@@H](O)C[C@]2(C)[C@@]1(O)C(=O)CO | -3.56 mol/L | 5 (Very slightly soluble (5)) | – | – | –
Nc1ccc(S(=O)(=O)Nc2nccs2)cc1 [Nc1ccc(S(=O)(=O)Nc2nccs2)cc1] | -2.62 mol/L | 5 (Very slightly soluble (5)) | – | – | –
